Experimental data: the NIST ThermoML archive (doi:10.1016/j.jct.2016.09.026)
Numbers after ± are expanded uncertainties.

Legend:
[1] = molar heat capacity at constant pressure; conditions: 101.33 kPa, Small sample (50 mg) DSC
[2] = molar enthalpy of vaporization or sublimation; conditions: 341.73 K; Liquid; Static calorimetry

CCCCC(=O)c1ccc(O)cc1 [1-(4-hydroxyphenyl)-1-pentanone]
[1]
Conditions	molar heat capacity at constant pressure [J/K/mol]
316.69 K, Crystal	257.2 ± 11
316.94 K, Crystal	258 ± 11
317.19 K, Crystal	257.2 ± 11
317.44 K, Crystal	257.6 ± 11
317.69 K, Crystal	257.8 ± 11
317.94 K, Crystal	257.4 ± 11
318.19 K, Crystal	257 ± 11
318.44 K, Crystal	258.3 ± 11
318.69 K, Crystal	258.9 ± 11
318.94 K, Crystal	259.1 ± 11
319.19 K, Crystal	260.1 ± 11
319.44 K, Crystal	259.4 ± 12
319.69 K, Crystal	260.1 ± 12
319.94 K, Crystal	259.7 ± 12
320.19 K, Crystal	259.7 ± 12
320.44 K, Crystal	260.3 ± 12
320.69 K, Crystal	260.6 ± 12
320.94 K, Crystal	261.2 ± 12
321.19 K, Crystal	261.4 ± 12
321.44 K, Crystal	260.7 ± 12
321.69 K, Crystal	260.9 ± 12
321.94 K, Crystal	260.9 ± 12
322.19 K, Crystal	261.4 ± 12
322.44 K, Crystal	262.1 ± 13
322.69 K, Crystal	262.7 ± 13
322.94 K, Crystal	262.6 ± 13
323.19 K, Crystal	263.3 ± 12
323.44 K, Crystal	263.3 ± 12
323.69 K, Crystal	262.8 ± 12
323.94 K, Crystal	263 ± 12
324.19 K, Crystal	264.1 ± 13
324.44 K, Crystal	264.2 ± 13
324.69 K, Crystal	264.3 ± 12
324.94 K, Crystal	265.1 ± 13
325.19 K, Crystal	265.2 ± 12
325.44 K, Crystal	265.1 ± 12
325.69 K, Crystal	265.8 ± 13
325.94 K, Crystal	266.1 ± 13
326.19 K, Crystal	266.1 ± 13
326.44 K, Crystal	267.6 ± 13
326.69 K, Crystal	267.8 ± 14
326.94 K, Crystal	267.5 ± 14
327.19 K, Crystal	267.3 ± 13
327.44 K, Crystal	267.7 ± 13
327.69 K, Crystal	268.3 ± 14
327.94 K, Crystal	268.4 ± 14
328.19 K, Crystal	268.9 ± 14
328.44 K, Crystal	269.8 ± 14
328.69 K, Crystal	269.8 ± 14
328.94 K, Crystal	270.3 ± 14
329.19 K, Crystal	270.3 ± 14
329.44 K, Crystal	272 ± 14
329.69 K, Crystal	273.2 ± 14
329.94 K, Crystal	272.8 ± 14
330.19 K, Crystal	273.6 ± 15
330.44 K, Crystal	273.2 ± 14
330.69 K, Crystal	275.7 ± 14
330.94 K, Crystal	275.7 ± 14
331.19 K, Crystal	277.6 ± 14
331.44 K, Crystal	277.9 ± 15
331.69 K, Crystal	278.6 ± 15
331.94 K, Crystal	280.4 ± 15
332.19 K, Crystal	281.8 ± 16
332.44 K, Crystal	283.8 ± 16
332.69 K, Crystal	285.5 ± 16
332.94 K, Crystal	287.6 ± 16
333.19 K, Crystal	291.7 ± 17
333.44 K, Crystal	295.7 ± 18
340.69 K, Liquid	393.2 ± 31
340.94 K, Liquid	373.9 ± 15
341.19 K, Liquid	368.2 ± 16
341.44 K, Liquid	365.9 ± 15
341.69 K, Liquid	367 ± 15
341.94 K, Liquid	367.1 ± 16
342.19 K, Liquid	366.1 ± 15
342.44 K, Liquid	366.4 ± 16
342.69 K, Liquid	368.5 ± 16
342.94 K, Liquid	384.8 ± 17
343.19 K, Liquid	386 ± 18
343.44 K, Liquid	368.7 ± 16
343.69 K, Liquid	364.2 ± 20
343.94 K, Liquid	364.3 ± 21
344.19 K, Liquid	364.4 ± 20
344.44 K, Liquid	365 ± 20
344.69 K, Liquid	366.8 ± 18
344.94 K, Liquid	368.6 ± 18
345.19 K, Liquid	369.5 ± 18
345.44 K, Liquid	369.4 ± 17
345.69 K, Liquid	370.7 ± 16
345.94 K, Liquid	371 ± 16
346.19 K, Liquid	371 ± 16
346.44 K, Liquid	370.7 ± 16
346.69 K, Liquid	371 ± 16
346.94 K, Liquid	372.4 ± 16
347.19 K, Liquid	373.1 ± 16
347.44 K, Liquid	372.8 ± 16
347.69 K, Liquid	373.7 ± 17
347.94 K, Liquid	374 ± 17
348.19 K, Liquid	373.1 ± 17
348.44 K, Liquid	372.9 ± 17
348.69 K, Liquid	371.8 ± 17
348.94 K, Liquid	372 ± 17
349.19 K, Liquid	373 ± 17
349.44 K, Liquid	374.4 ± 17
349.69 K, Liquid	374.8 ± 18
349.94 K, Liquid	374 ± 18
350.19 K, Liquid	374.1 ± 18
350.44 K, Liquid	375.3 ± 17
350.69 K, Liquid	374.9 ± 18
350.94 K, Liquid	373.9 ± 18
351.19 K, Liquid	375 ± 17
351.44 K, Liquid	376.6 ± 18
351.68 K, Liquid	375.6 ± 18
351.93 K, Liquid	376.3 ± 18

Conditions	molar enthalpy [kcal/mol]
[2]	22.96 ± 0.174
